Assay results published in publication PMC12169615, “Fluorescent 4‑Nitrobenzo-2-oxa-1,3-diazole-Coupled Bile Acids as Probe Substrates of Hepatic and Intestinal Bile Acid Transporters of the Solute Carrier Families SLC10 and SLCO” (Journal of Medicinal Chemistry, 2025).
Where “and” joins values, the source holds several entries; their conditions need not be identical. Equal values may be shown once.

Legend:
HEK293 cells = experiment: Fluorescence microscopy screening: accumulation independent from control conditions; format: cell-based, human; settings: 50 μM, 10 min, all HEK293 cell lines, with and without sodium
Procedure: Then, all cell lines were cultivated in chamber slides and were grown to confluence to screen for carrier-mediated cellular accumulation of the synthesized NBD-BA. Incubation with the NBD-BA was done in the presence of sodium (+Na^+) as well as in the absence of sodium (-Na^+, negative control) for all SLC10 carriers, namely NTCP, ASBT, mNtcp, mAsbt, and SOAT. For OATP1B1 and OATP1B3, nontransfected HEK293 cells were used as negative control.
4 Screening of the cellular uptake of 3-NBD-BA in HEK293 (HEK) cells stably expressing the human carriers NTCP, ASBT, SOAT, OATP1B1, and OATP1B3, or the mouse carriers mNtcp and mAsbt. For the SLC10 carriers, sodium-free conditions (-Na^+) were used as control. For the OATPs, experiments in non-carrier-expressing HEK293 cells (HEK) served as control. All cell lines were incubated for 10 min with the indicated 3-NBD-BA at 50 μM concentration. Then, cells were washed with PBS and subjected to fluorescence microscopy. Identical microscope settings were used for all images. Scale bar: 75 μm.

human ASBT = molecular target: T1, human ASBT (Homo sapiens, UniProt Q12908); experiment: Transport kinetics of conjugated 3-NBD-BA (concentration-dependent uptake); format: cell-based; parameters: stably transfected with the full open reading frames of human NTCP, ASBT, SOAT, OATP1B1, and OATP1B3; expressed in transfected cells; settings: for Transport rates via ASBT across the entire concentration range: ASBT-HEK293, 10 min, +Na+ vs -Na+, not considered biologically meaningful
T1 sequence (Q12908 1-348): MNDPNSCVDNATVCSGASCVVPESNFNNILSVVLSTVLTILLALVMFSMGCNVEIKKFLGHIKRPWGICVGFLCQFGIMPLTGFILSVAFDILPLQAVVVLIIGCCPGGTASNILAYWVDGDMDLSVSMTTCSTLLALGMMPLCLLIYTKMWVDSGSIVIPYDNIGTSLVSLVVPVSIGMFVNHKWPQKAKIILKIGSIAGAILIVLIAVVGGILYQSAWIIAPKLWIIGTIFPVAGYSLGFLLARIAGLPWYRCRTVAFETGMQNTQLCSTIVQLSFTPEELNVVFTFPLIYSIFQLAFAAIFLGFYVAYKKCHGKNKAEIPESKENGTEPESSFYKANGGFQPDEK
Procedure: (§1) In a first step, the time-dependent transport of all conjugated NBD-BA was analyzed. […] Based on these findings, an uptake phase of 10 min was selected as the most practical for subsequent kinetic transport measurements. […] In contrast, for ASBT, reliable carrier-specific concentration-dependent transport rates and K m values could only be determined for 3α-NBD-GCA (16d). The transport rates for 3β-NBD-TCA (14a), 3β-NBD-TCDCA (14b), 3β-NBD-GCA (16a), and 3α-NBD-TCA (14d) were at ≤ 2 across the entire concentration range and were therefore not considered biologically meaningful.
(§2) 7 ASBT and mAsbt transport kinetics for conjugated 3-NBD-BA. Concentration-dependent uptake of the indicated NBD-coupled BA was analyzed in HEK293 cells stably expressing human ASBT or mouse mAsbt at increasing substrate concentrations. Control experiments were performed in the absence of sodium (-Na^+). Uptake was analyzed for 10 min at 37 °C with transport buffer containing the indicated 3-NBD-BA. Afterward, the transport medium was removed, and each cell monolayer was washed and processed for fluorescence detection. Specific uptake was calculated by subtracting the nonspecific uptake in the absence of sodium (-Na^+, open symbols) from the uptake in the presence of sodium (+Na^+, closed symbols) and is shown by dotted lines. Values represent means ± SD of quadruplicate determinations. Michaelis Menten K m values were calculated by nonlinear regression analysis based on the specific uptake data. For ASBT, reliable specific uptake data could only be determined for 3α-NBD-GCA (16d).

[1] = parameters: method as in not given; settings: ref not given, cited from earlier work
mouse mAsbt = molecular target: T2, mouse mAsbt (Mus musculus, UniProt P70172); experiment: Transport kinetics of conjugated 3-NBD-BA (concentration-dependent uptake); format: cell-based; parameters: stably transfected with the full open reading frames of human NTCP, ASBT, SOAT, OATP1B1, and OATP1B3 as well as mouse mNtcp and mAsbt; expressed in transfected cells; settings: mAsbt-HEK293, 10 min uptake, 37 °C, specific (Na+-dependent) uptake
T2 sequence (P70172 1-348): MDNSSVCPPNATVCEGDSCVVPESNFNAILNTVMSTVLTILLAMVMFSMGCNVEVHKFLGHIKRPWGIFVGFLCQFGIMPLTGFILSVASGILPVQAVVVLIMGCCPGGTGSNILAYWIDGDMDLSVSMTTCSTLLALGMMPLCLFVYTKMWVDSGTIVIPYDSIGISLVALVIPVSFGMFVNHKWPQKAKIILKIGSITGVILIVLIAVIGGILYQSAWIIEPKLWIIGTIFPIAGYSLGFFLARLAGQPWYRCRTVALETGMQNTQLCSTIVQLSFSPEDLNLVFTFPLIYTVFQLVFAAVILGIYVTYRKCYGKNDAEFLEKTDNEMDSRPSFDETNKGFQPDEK
Procedure: as §1, §2

Compound	Cellular NBD-fluorescence irrespective of carrier/control conditions (microscopy) (HEK293 cells)	Transport rates via ASBT across the entire concentration range (human ASBT)	K m mAsbt (mouse mAsbt)	other results
7α-Hydroxy-3β-[(7-nitro-2,1,3-benzoxadiazol-4-yl)amino]-5β-cholan-24-oate [6b]	significant increase in cellular NBD-fluorescence, independent from the control conditions	–	–	–
12α-Hydroxy-3β-[(7-nitro-2,1,3-benzoxadiazol-4-yl)amino]-5β-cholan-24-oate [6c]	significant increase in cellular NBD-fluorescence, independent from the control conditions	–	–	–
C[C@H](CCC(=O)O)[C@H]1CC[C@H]2[C@@H]3[C@H](O)C[C@@H]4C[C@@H](Nc5ccc([N+](=O)[O-])c6nonc56)CC[C@]4(C)[C@H]3C[C@H](O)[C@]12C [6a, 7α,12α-Dihydroxy-3β-[(7-nitro-2,1,3-benzoxadiazol-4-yl)amino]-5β-cholan-24-oate]	significant increase in cellular NBD-fluorescence, independent from the control conditions	–	–	–
C[C@H](CCC(=O)O)[C@H]1CC[C@H]2[C@@H]3[C@H](O)C[C@@H]4C[C@H](Nc5ccc([N+](=O)[O-])c6nonc56)CC[C@]4(C)[C@H]3C[C@H](O)[C@]12C [6d, 7α,12α-Dihydroxy-3α-[(7-nitro-2,1,3-benzoxadiazol-4-yl)amino]-5β-cholan-24-oate]	significant increase in cellular NBD-fluorescence, independent from the control conditions	–	–	–
C[C@H](CCC(=O)NCCS(=O)(=O)[O-])[C@H]1CC[C@H]2[C@@H]3[C@H](O)C[C@@H]4C[C@@H](Nc5ccc([N+](=O)[O-])c6nonc56)CC[C@]4(C)[C@H]3C[C@H](O)[C@]12C.[Na+] [14a]	–	≤ 2	20.0 µM and 20 µM	Amount injected recovered in the bile ([1]; in situ liver perfusion, injected into the mesenterial vein, within 30 min): 95%
C[C@H](CCC(=O)NCCS(=O)(=O)[O-])[C@H]1CC[C@H]2[C@@H]3[C@H](O)C[C@@H]4C[C@H](Nc5ccc([N+](=O)[O-])c6nonc56)CC[C@]4(C)[C@H]3C[C@H](O)[C@]12C.[Na+] [14d]	–	≤ 2	11.1 µM	Fate in the liver (metabolism, secretion into bile) ([1]; in situ liver perfusion with bile duct cannulation): completely transformed within the liver cells to a polar fluorescent metabolite that showed sparse secretion into bile
C[C@H](CCC(=O)NCC(=O)O)[C@H]1CC[C@H]2[C@@H]3[C@H](O)C[C@@H]4C[C@@H](Nc5ccc([N+](=O)[O-])c6nonc56)CC[C@]4(C)[C@H]3C[C@H](O)[C@]12C [16a]	–	≤ 2	3.5 µM	–
C[C@H](CCC(=O)NCC(=O)O)[C@H]1CC[C@H]2[C@@H]3[C@H](O)C[C@@H]4C[C@H](Nc5ccc([N+](=O)[O-])c6nonc56)CC[C@]4(C)[C@H]3C[C@H](O)[C@]12C [16d]	–	–	14.5 µM	K m ASBT (human ASBT; ASBT-HEK293, 10 min uptake, 37 °C, specific (Na+-dependent) uptake): 14.5 µM
